Laboratory results from patent US8629143B2, “Potassium channel modulators” (AbbVie Inc., priority 2009, dated 2014).

Columns and labels:
[1] = tested on: Adult male Sprague-Dawley rats; experiment: Capsaicin-induced secondary mechanical hypersensitivity; type: in vivo; conditions: rat, about 30 mg/kg i.p., tactile allodynia 30 minutes after dosing, 180 minutes post-capsaicin
Text: (§1) Adult male Sprague-Dawley rats (250-300 g body weight, Charles River Laboratories, Portage, Mich.) were used. Animal handling and experimental protocols were approved by the Institutional Animal Care and Use Committee (IACUC) at Abbott Laboratories. For all surgical procedures, animals were maintained under isoflurane anesthesia (4-5% to induce, 1-3% to maintain), and the incision sites were sterilized using a 10% povidone-iodine solution prior to and after surgeries.
Rats were allowed to acclimate to the study room for 1 h. […] Secondary mechanical hyperalgesia was measured at the heel away from the site of injection at 180 minutes following capsaicin (Joshi et al 2006, Neuroscience 143, 587-596). […]
Tactile (mechanical) allodynia was measured using calibrated von Frey filaments (Stoelting, Wood Dale, Ill.) as described in Chaplan, S. R., F. W. Bach, J. M. Pogrel, J. M. Chung and T. L. Yaksh, 1994, Quantitative assessment of tactile allodynia in the rat paw, J. Neurosci. […] A 50% withdrawal threshold was determined using an up-down procedure (Dixon, W. J., 1980, Efficient analysis of experimental observations, Ann. Rev. Pharmacol. Toxicol., 20, 441). […] Tactile allodynia thresholds were also assessed in several control groups, including naive, sham-operated, and saline infused animals as well as in the contralateral paws of nerve-injured rats. […]
Tactile allodynia was measured as described above.

[2] = target: T1, KCNQ 2/3 channels (HEK293 cells stably expressing human KCNQ2 and KCNQ3 subunits) (Homo sapiens, UniProt O43525+O43526); experiment: KCNQ2/3 channel activation, thallium flux FLIPR assay with BTC-AM dye; type: cell-based; conditions: for Emax: HEK293, maximum response relative to the response produced by 10 μM retigabine (set at 100%), read-out: Max. %; for EC50: HEK293 cells expressing human KCNQ2 and KCNQ3, thallium flux, FLIPR
T1 construct: expressed in transfected cells; host or cells: HEK293
In short: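 HEK293 cells stably expressing human KCNQ2/KCNQ3 were loaded with BTC-AM (3 μg/mL, 2 h, RT) and preincubated with compound for 4 min in pH 7.3 gluconate buffer containing 0.1 mM ouabain. Flux was triggered by 6 mM TlNO3/10 mM K2SO4 and read for 3 min; EC50 came from summed responses over basal, with maximum relative to 10 μM retigabine (100%).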

[3] = tested on: Adult male Sprague-Dawley rats; experiment: Spinal nerve ligation (SNL) model of neuropathic pain; type: in vivo; conditions: rat SNL model (L5/L6 ligation), about 30 mg/kg, tactile allodynia
Text: as §1
Tactile (mechanical) allodynia was measured using calibrated von Frey filaments (Stoelting, Wood Dale, Ill.) as described in Chaplan, S. R., F. W. Bach, J. M. Pogrel, J. M. Chung and T. L. Yaksh, 1994, Quantitative assessment of tactile allodynia in the rat paw, J. Neurosci. Methods, 53, 55. Rats were placed into inverted individual plastic containers (20×12.5×20 cm) on top of a suspended wire mesh grid, and acclimated to the test chambers for 20 minutes. The von Frey filaments were presented perpendicularly to the plantar surface of the selected hind paw, and then held in this position for approximately 8 sec with enough force to cause a slight bend in the filament. Positive responses included an abrupt withdrawal of the hind paw from the stimulus, or flinching behavior immediately following removal of the stimulus. A 50% withdrawal threshold was determined using an up-down procedure (Dixon, W. J., 1980, Efficient analysis of experimental observations, Ann. Rev. Pharmacol. Toxicol., 20, 441). […] Tactile allodynia thresholds were also assessed in several control groups, including naive, sham-operated, and saline infused animals as well as in the contralateral paws of nerve-injured rats. To evaluate the anti-nociceptive effects, animals were administered vehicle or test compound and tactile allodynia was assessed 30 minutes after i.p. administration.
A model of spinal nerve ligation-induced (SNL model) neuropathic pain as originally described by Kim and Chung (Kim, S. H. and J. M. Chung, 1992, Pain 50, 355) was used to test a compound of the present application The left L5 and L6 spinal nerves of the rat were isolated adjacent to the vertebral column and tightly ligated with a 5-0 silk suture distal to the DRG, and care taken to avoid injury of the L4 spinal nerve. The same procedure was performed on Sham rats, but without nerve ligation. All animals were allowed to recover for at least one week and not more than three weeks prior to assessment of tactile allodynia.

Emax [2]	EC50 [2]	Compound	change in paw withdrawal latency versus vehicle [1]	change in paw withdrawal latency versus vehicle [3]
100%	100 to 500 nM	O=C(Cc1ccc(Cl)cc1)Nn1nc(-c2ccc(Br)cc2)c2ccccc2c1=O [Example 3, N-[4-(4-bromophenyl)-1-oxophthalazin-2(1H)-yl]-2-(4-chlorophenyl)acetamide]	statistically significant change	
101%	100 to 500 nM	O=C(Cc1ccccc1)Nn1nc(-c2ccc(Cl)cc2)c2ccccc2c1=O [Example 91, N-[4-(4-chlorophenyl)-1-oxophthalazin-2(1H)-yl]-2-phenylacetamide]		statistically significant change
120%	100 to 500 nM	O=C(Cc1ccc(Cl)cc1)Nn1nc(-c2ccc(Cl)cc2)c2ccccc2c1=O [Example 117, 2-(4-chlorophenyl)-N-[4-(4-chlorophenyl)-1-oxophthalazin-2(1H)-yl]acetamide]		statistically significant change

The next lines start with the compound.

Compound	Emax [2]	EC50 [2]	change in paw withdrawal latency versus vehicle [1]	change in paw withdrawal latency versus vehicle [3]
CC1(C)[C@@H]2C[C@H]1[C@H](CC(=O)Nn1nc(-c3ccc(Cl)cc3)c3ccccc3c1=O)C(F)(F)C2 [Example 88, N-[4-(4-chlorophenyl)-1-oxophthalazin-2(1H)-yl]-2-[(1S,2S,5R)-3,3-difluoro-6,6-dimethylbicyclo[3.1.1]hept-2-yl]acetamide]	60%	500 to 1000 nM		statistically significant change
O=C(C[C@H]1C[C@@H]2CC[C@H]1C2)Nn1nc(-c2ccc(C(F)(F)F)cc2)c2ccccc2c1=O (racemic) [Example 150, (±)-2-(exo-bicyclo[2.2.1]hept-2-yl)-N-{1-oxo-4-[4-(trifluoromethyl)phenyl]phthalazin-2(1H)-yl}acetamide]	138%	< 100 nM		statistically significant change
O=C(CC12CC3CC(CC(C3)C1)C2)Nn1nc(-c2ccccc2)c2ccccc2c1=O [Example 17, 2-(1-adamantyl)-N-(1-oxo-4-phenylphthalazin-2(1H)-yl)acetamide]	205%	< 100 nM	statistically significant change	
